Tests used:
Format in all cases: cell-based
Trichophyton rubrum = assay: Antifungal activity in vitro, resazurin growth inhibition: Trichophyton rubrum (B68183)
Description: (§1) The standard susceptibility screen is performed in 96-well plates (U-bottom, Greiner Bio-One). Serial dilutions (2-fold or 4-fold) of 20 mM compound stock solutions are made in 100% DMSO, followed by an intermediate dilution step in water. These serial dilutions (10 μl) are then spotted onto test-plates that can be stored in the dark at 4° C. for a maximum period of 2 weeks. An adequate broad dose-range is included with 64 μM as the highest in-test concentration. The culture medium RPMI-1640 is supplemented with L-glutamine, 2% glucose and buffered with 3-(N-morpholino)-propanesulfonic acid (MOPS) at pH 7.0±0.1.
(§2) The different fungal species/isolates (Table 3a) are cryopreserved and 1/1000 diluted in medium just prior to use. A standard inoculum of 200 μl containing 10^3 colony-forming unit (cfu) is then added to each well. A positive control (100% growth=fungal culture without antifungal) and a negative control (0% growth ═RPMI-MOPS medium) are included on each plate. Optimal incubation time and temperature are dependent on the fungal species and vary from 24 h for yeasts (37° C.) to one week or more for dermatophytes (27° C.). Inhibition of fungal growth is measured after adding 10 μl of 0.005% (w/v) resazurin (Sigma Aldrich) to each well, based on the principle that living cells convert the non-fluorescent blue resazurin into the pink and fluorescent resorufin, allowing fluorimetric reading (λex 550 nm and λem 590 nm) after an additional incubation period (‘resa’ time mentioned in Table 3a).

Sporothrix schenkii = assay: Antifungal activity in vitro, resazurin growth inhibition: Sporothrix schenkii (B62482)
Description: as §1, §2

[1] = test system: Trichophyton mentagrophytes; assay: Antifungal activity in vitro, resazurin growth inhibition: Trichophyton mentagrophytes (B70554)
Description: as §1, §2

Cryptococcus neoformans = assay: Antifungal activity in vitro, resazurin growth inhibition: Cryptococcus neoformans (B66663)
Description: as §1, §2

Candida parapsilosis = assay: Antifungal activity in vitro, resazurin growth inhibition: Candida parapsilosis (B66126)
Description: as §1, §2

Microsporum canis = assay: Antifungal activity in vitro, resazurin growth inhibition: Microsporum canis (B68128)
Description: as §1, §2

Aspergillus fumigatus = assay: Antifungal activity in vitro, resazurin growth inhibition: Aspergillus fumigatus (B42928)
Description: as §1, §2

| Compound | Inf. C: Trichophyton rubrum B68183, pIC50 (Trichophyton rubrum) | Inf. A: Sporothrix schenkii B62482, pIC50 (Sporothrix schenkii) | Inf. G: Trichophyton mentagrophytes B70554, pIC50 [1] | Inf. F: Cryptococcus neoformans B66663, pIC50 (Cryptococcus neoformans) | Inf. D: Candida parapsilosis B66126, pIC50 (Candida parapsilosis) | Inf. B: Microsporum canis B68128, pIC50 (Microsporum canis) | Inf. E: Aspergillus fumigatus B42928, pIC50 (Aspergillus fumigatus) |
| --- | --- | --- | --- | --- | --- | --- | --- |
| Br.CCn1ccc(C2NCc3c(Cl)cccc3-n3cccc32)n1 (racemic) [Compound 10] | <4.19 | <4.19 | <4.19 | <4.19 | <4.19 | 4.25 | <4.19 |
| Clc1cccc2c1CNC(c1ccccn1)c1cccn1-2 (racemic) [Compound 11] | 4.71 | 4.49 | 4.72 | 4.93 | <4.19 | 4.73 | 4.31 |
| Cc1cccc(C2NCc3c(Cl)cccc3-n3cccc32)n1 (racemic) [Compound 12] | 4.92 | 4.59 | <4.49 | 4.82 | <4.49 | <4.49 | <4.49 |
| CCc1ccc(C2NCc3c(Cl)cccc3-n3cccc32)nc1.Cl (racemic) [Compound 13] | 5.70 | <4.19 | 5.00 | 4.52 | <4.19 | 5.40 | <4.19 |
| CCc1ccc(C2NCc3c(Cl)cccc3-n3cccc32)cn1.Cl (racemic) [Compound 14] | 5.30 | <4.19 | 4.74 | 4.28 | <4.19 | 5.30 | <4.19 |
| Cl.FC(F)(F)c1ccc(C2NCc3ccccc3-n3cccc32)cn1 (racemic) [Compound 15] | 4.70 | <4.19 | 4.56 | 4.92 | <4.19 | 4.25 | <4.19 |
| Cl.FC(F)(F)c1ccc(C2NCc3c(Cl)cccc3-n3cccc32)cn1 (racemic) [Compound 16] | 5.69 | <4.19 | 5.28 | 4.64 | <4.19 | 5.19 | <4.19 |
| Br.Clc1cccc2c1CNC(c1ccncc1)c1cccn1-2 (racemic) [Compound 21] | 5.52 | 4.70 | – | 4.66 | <4.19 | 5.04 | <4.19 |
| Br.Clc1ccc2c(c1)CNC(c1ccncc1)c1cccn1-2 (racemic) [Compound 22] | 5.10 | <4.19 | – | 4.32 | <4.19 | 5.22 | <4.19 |
| Clc1cccc2c1CN=C(c1ccc3nc[nH]c3c1)c1cccn1-2 [Compound 205] | <4 | <4 | <4 | <4 | <4 | – | <4 |

From patent US9493468B2, “Antifungal 5,6-dihydro-4H-pyrrolo[1,2-a][1,4]benzo-diazepines and 6H-pyrrolo[1,2-a][1,4]benzodiazepines substituted with heterocyclic derivatives” (Janssen Pharmaceutica NV, priority 2011, dated 2016)
